From ChEMBL document CHEMBL1151897, “Limazepines A-F, pyrrolo[1,4]benzodiazepine Antibiotics from an Indonesian Micrococcus sp” (2009)
The source made the active and inactive calls. The calls are words filed in the database; no cut-off is given here.

Columns and labels:
Pseudomonas aeruginosa [1] = experiment: Antibacterial activity against Pseudomonas aeruginosa at 30 ug/disk; format: functional
Bacillus subtilis = experiment: Antibacterial activity against Bacillus subtilis; format: functional, organism-based
Candida albicans = experiment: Antifungal activity against Candida albicans; format: functional, organism-based
Rhizomucor miehei = experiment: Antifungal activity against Mucor miehei; format: functional, organism-based
Escherichia coli [2] = experiment: Antibacterial activity against Escherichia coli at 30 ug/disk; format: functional, organism-based
Staphylococcus aureus [3] = experiment: Antibacterial activity against Staphylococcus aureus at 30 ug/disk; format: functional; settings: for zone of inhibition at 30 µg/disc: read-out: IZ
Staphylococcus aureus [4] = experiment: Antibacterial activity against Staphylococcus aureus at 1 ug/disk; format: functional; settings: read-out: IZ
Pseudomonas aeruginosa [5] = experiment: Antibacterial activity against Pseudomonas aeruginosa at 1 ug/disk; format: functional; settings: read-out: IZ
Escherichia coli [6] = experiment: Antibacterial activity against Escherichia coli at 1 ug/disk; format: functional; settings: read-out: IZ
Pseudomonas aeruginosa [7] = experiment: Antibacterial activity against Pseudomonas aeruginosa at 40 ug/disk; format: functional, organism-based
Escherichia coli [8] = experiment: Antibacterial activity against Escherichia coli at 40 ug/disk; format: functional; settings: for zone of inhibition at 40 µg/disc: read-out: IZ
Staphylococcus aureus [9] = experiment: Antibacterial activity against Staphylococcus aureus at 40 ug/disk; format: functional; settings: for zone of inhibition at 40 µg/disc: read-out: IZ
Staphylococcus aureus [10] = experiment: Antibacterial activity against Staphylococcus aureus at 24 ug/disk; format: functional, organism-based
Pseudomonas aeruginosa [11] = experiment: Antibacterial activity against Pseudomonas aeruginosa at 24 ug/disk; format: functional, organism-based
Escherichia coli [12] = experiment: Antibacterial activity against Escherichia coli at 24 ug/disk; format: functional, organism-based

C/C=C1\C[C@H]2[C@@H](O)Nc3ccccc3C(=O)N2C1
inhibition zone (IZ) (Pseudomonas aeruginosa [1]): inactive | Activity (Bacillus subtilis): inactive | Activity (Candida albicans): inactive | Activity (Rhizomucor miehei): inactive | inhibition zone (IZ) (Escherichia coli [2]): inactive | inhibition zone (IZ) (Staphylococcus aureus [3]): inactive

CC1(C)S[C@@H]2[C@H](NC(=O)[C@H](N)c3ccccc3)C(=O)N2[C@H]1C(=O)O [AMPICILLIN]
zone of inhibition at 1 µg/disc (Staphylococcus aureus [4]): 13 mm | zone of inhibition at 1 µg/disc (Pseudomonas aeruginosa [5]): 30 mm | Activity (Bacillus subtilis): inactive | Activity (Candida albicans): inactive | Activity (Rhizomucor miehei): inactive | zone of inhibition at 1 µg/disc (Escherichia coli [6]): 25 mm

COC(=O)c1ccc(OC)c(O)c1N
inhibition zone (IZ) (Pseudomonas aeruginosa [1]): inactive | Activity (Bacillus subtilis): inactive | Activity (Candida albicans): inactive | Activity (Rhizomucor miehei): inactive | inhibition zone (IZ) (Escherichia coli [2]): inactive | zone of inhibition at 30 µg/disc (Staphylococcus aureus [3]): 11 mm

CCc1cc2cnc3c(O)c(OC)ccc3c(=O)n2c1 [LIMAZEPINE D]
zone of inhibition at 30 µg/disc (Pseudomonas aeruginosa [1]; read-out: IZ): 9 mm | Activity (Bacillus subtilis): inactive | Activity (Candida albicans): inactive | Activity (Rhizomucor miehei): inactive | inhibition zone (IZ) (Escherichia coli [2]): inactive | zone of inhibition at 30 µg/disc (Staphylococcus aureus [3]): 7 mm

C/C=C1\C[C@H]2C=Nc3ccccc3C(=O)N2C1
inhibition zone (IZ) (Pseudomonas aeruginosa [1]): inactive | Activity (Bacillus subtilis): inactive | Activity (Candida albicans): inactive | Activity (Rhizomucor miehei): inactive | inhibition zone (IZ) (Escherichia coli [2]): inactive | inhibition zone (IZ) (Staphylococcus aureus [3]): inactive

CCC1=CN2C(=O)c3ccc(OC)c(O)c3NC(=O)[C@@H]2C1
inhibition zone (IZ) (Pseudomonas aeruginosa [7]): inactive | Activity (Bacillus subtilis): inactive | Activity (Candida albicans): inactive | Activity (Rhizomucor miehei): inactive | inhibition zone (IZ) (Escherichia coli [8]): inactive | inhibition zone (IZ) (Staphylococcus aureus [9]): inactive

CCc1c[nH]c(C=O)c1
inhibition zone (IZ) (Staphylococcus aureus [10]): inactive | inhibition zone (IZ) (Pseudomonas aeruginosa [11]): inactive | Activity (Bacillus subtilis): inactive | Activity (Candida albicans): inactive | Activity (Rhizomucor miehei): inactive | inhibition zone (IZ) (Escherichia coli [12]): inactive

C/C=C1\C[C@H]2C=Nc3c(ccc(OC)c3O)C(=O)N2C1 [LIMAZEPINE E]
inhibition zone (IZ) (Pseudomonas aeruginosa [7]): inactive | Activity (Bacillus subtilis): inactive | Activity (Candida albicans): inactive | Activity (Rhizomucor miehei): inactive | zone of inhibition at 40 µg/disc (Escherichia coli [8]): 10 mm | zone of inhibition at 40 µg/disc (Staphylococcus aureus [9]): 12 mm

CCC1=CN2C(=O)c3ccc(OC)c(O)c3N=C[C@@H]2C1 [LIMAZEPINE C]
inhibition zone (IZ) (Pseudomonas aeruginosa [7]): inactive | Activity (Bacillus subtilis): inactive | Activity (Candida albicans): inactive | Activity (Rhizomucor miehei): inactive | zone of inhibition at 40 µg/disc (Escherichia coli [8]): 10 mm | zone of inhibition at 40 µg/disc (Staphylococcus aureus [9]): 18 mm
